Measurements taken from patent US9982234B2, “Culture medium composition for improving regenerative capacity of stem cells, and stem cell culturing method using same” (R BIO CO., LTD., priority 2013, dated 2018).

What was measured:
Format in all cases: cell-based, human
[1] = tested on: adipose mesenchymal stem cells; assay: Telomerase activity of stem cells (Telo TAGGG Telomerase PCR ELISA kit); parameters: telomerase activity (N = 3): unit not given here; details: for telomerase activity (N = 3): cells cultured to passage 3
Method: (§1) While the adipose mesenchymal stem cells isolated in Example 1 was cultured in each of the media, the adipose mesenchymal stem cells were collected at different days of culture, and the viability, cell size and CPDL of the cells were measured. Also, telomerase activity was measured for the cells subcultured to passage 3. The Alnus japonica extract in medium 11 was prepared in the following manner.
Adipose mesenchymal stem cells isolated from persons in their 40s, 50s and 60s according to the method of Example 1 were cultured to passage 3 in each of the media shown in Table 4 above, and then the telomerase activity of the stem cells was measured using Telo TAGGG Telomerase PCR ELISA kit (Roche).

[2] = tested on: adipose mesenchymal stem cells; assay: Viability of stem cells (Luna automated cell counter); parameters: viability of stem cells: unit not given here; details: for effect on the viability of the cells: 4 days of culture, result in words; for viability of stem cells: mean n=3
Method: (§2) The adipose mesenchymal stem cells of three persons, obtained by subculture to passage 3 in Example 1, were seeded into each of the following media and cultured for 4 days. During 4 days of culture, the morphology of the cells was observed. In addition, the size, viability and CDPL (cell population doubling level) of the cells were measured and expressed as mean values.
as §1
The viability of the stem cells was measured using Luna™ automated cell counter (n=3).

[3] = tested on: adipose mesenchymal stem cells; assay: Morphology of stem cells under phase contrast microscope; details: 4 days of culture; result in words
Method: as §2
The morphology of the stem cells was observed under a phase contrast microscope and photographed (see FIG. 1).

[4] = tested on: adipose mesenchymal stem cells; assay: Size of stem cells (Luna automated cell counter); details: for effect on the size of the cells: 4 days of culture, result in words; for size of stem cells: mean n=3
Method: as §2, §1
The adipose mesenchymal stem cells isolated in Example 1 were seeded in each of the media, and then treated with trypsin at different days of culture. Next, the adipose mesenchymal stem cells were collected, and the size (μm) of the stem cells was measured using Luna™ automated cell counter (n=3).

[5] = tested on: adipose mesenchymal stem cells; assay: Cell population doubling level (CPDL) of stem cells
Method: as §2, §1
The cell population doubling level (CPDL) of the stem cells was calculated using the following equation: CPDL=[…], wherein Nfinal: the number of finally obtained cells; and Ninitial: the number of initially seeded cells.

[6] = Day 1 post seeding, 20 nM in M9 medium
[7] = Day 1 post seeding, 50 nM in M9 medium
[8] = Day 2 post seeding, 20 nM in M9 medium
[9] = Day 2 post seeding, 50 nM in M9 medium
[10] = Day 3 post seeding, 20 nM in M9 medium
[11] = Day 3 post seeding, 50 nM in M9 medium
[12] = Day 4 post seeding, 20 nM in M9 medium
[13] = Day 4 post seeding, 50 nM in M9 medium

## Cc1c(-c2cnccn2)ssc1=S [Oltipraz, oltipraz]
[1]; 7 μM in M9 medium
  telomerase activity (N = 3): 1.968
[1]; 10 μM in M9 medium
  telomerase activity (N = 3): 2.137

## COC1=C(OC)C(=O)C(C/C=C(\C)CC/C=C(\C)CC/C=C(\C)CC/C=C(\C)CC/C=C(\C)CC/C=C(\C)CC/C=C(\C)CC/C=C(\C)CC/C=C(\C)CCC=C(C)C)=C(C)C1=O [Coenzyme Q10, coenzyme Q-10]
[2]
  effect on the viability of the cells: no significant effect on the viability
[1]; 5 μM in M9 medium
  telomerase activity (N = 3): 2.817
[1]; 10 μM in M9 medium
  telomerase activity (N = 3): 1.964
[3]
  effect on the morphology of the cells: no significant effect on the morphology
[4]
  effect on the size of the cells: no significant effect on the size

## CC(C)(C)c1cc(O)ccc1O [TBH-Q, T-BHQ]
[1]; 5 μM in M9 medium
  telomerase activity (N = 3): 2.524
[1]; 20 μM in M9 medium
  telomerase activity (N = 3): 2.838

## Oc1ccc(C=Cc2cc(O)cc(O)c2)cc1 [Resveratrol]
[1]; 1 μM in M9 medium
  telomerase activity (N = 3): 2.042
[1]; 2 μM in M9 medium
  telomerase activity (N = 3): 1.654

## apelin
[2]
  effect on the viability of the cells: no significant effect on the viability
[2]; [6]
  viability of stem cells: 97.2
[2]; [7]
  viability of stem cells: 91.7
[2]; [8]
  viability of stem cells: 98.9
[2]; [9]
  viability of stem cells: 100
[2]; [10]
  viability of stem cells: 98.8
[2]; [11]
  viability of stem cells: 98.8
[2]; [12]
  viability of stem cells: 99.4
[2]; [13]
  viability of stem cells: 99.2
[1]; 5 nM in M9 medium
  telomerase activity (N = 3): 2.838
[1]; 20 nM in M9 medium
  telomerase activity (N = 3): 3.068
[1]; 20 nM, passage 3, result in words
  telomerase activity compared between media: highest telomerase activity
[5]; Day 0 post seeding, 20 nM in M9 medium
  cell population doubling level (CPDL): 0.00
[5]; Day 0 post seeding, 50 nM in M9 medium
  cell population doubling level (CPDL): 0.00
[5]; [6]
  cell population doubling level (CPDL): 0.89
[5]; [7]
  cell population doubling level (CPDL): 0.56
[5]; [8]
  cell population doubling level (CPDL): 2.84
[5]; [9]
  cell population doubling level (CPDL): 1.65
[5]; [10]
  cell population doubling level (CPDL): 6.54
[5]; [11]
  cell population doubling level (CPDL): 5.11
[5]; [12]
  cell population doubling level (CPDL): 9.28
[5]; [13]
  cell population doubling level (CPDL): 8.20
[5]; cultured in medium containing the substance, result in words
  ability to proliferate: proliferation ability efficiently increased
[3]
  effect on the morphology of the cells: no significant effect on the morphology
[4]
  effect on the size of the cells: no significant effect on the size
[4]; [6]
  size of stem cells: 19.0 μm
[4]; [7]
  size of stem cells: 18.6 μm
[4]; [8]
  size of stem cells: 18.3 μm
[4]; [9]
  size of stem cells: 15.6 μm
[4]; [10]
  size of stem cells: 18.2 μm
[4]; [11]
  size of stem cells: 18.0 μm
[4]; [12]
  size of stem cells: 18.5 μm
[4]; [13]
  size of stem cells: 17.9 μm
